Reference: ChEMBL document CHEMBL1135858, “Vitamin D(3): synthesis of seco-C-9,11-bisnor-17-methyl-1 alpha,25-dihydroxyvitamin D(3) analogues” (2002)

What was measured:
[1] = biological target: T1, Vitamin D3 receptor (Sus scrofa) (UniProt A3RGC1); assay: (§1) Displacement of 50% binding of [3H]alpha,25 (OH)2D3 from pig intestinal mucosa Vitamin D3 receptor; assay type: tissue-based
T1 sequence (whole entry): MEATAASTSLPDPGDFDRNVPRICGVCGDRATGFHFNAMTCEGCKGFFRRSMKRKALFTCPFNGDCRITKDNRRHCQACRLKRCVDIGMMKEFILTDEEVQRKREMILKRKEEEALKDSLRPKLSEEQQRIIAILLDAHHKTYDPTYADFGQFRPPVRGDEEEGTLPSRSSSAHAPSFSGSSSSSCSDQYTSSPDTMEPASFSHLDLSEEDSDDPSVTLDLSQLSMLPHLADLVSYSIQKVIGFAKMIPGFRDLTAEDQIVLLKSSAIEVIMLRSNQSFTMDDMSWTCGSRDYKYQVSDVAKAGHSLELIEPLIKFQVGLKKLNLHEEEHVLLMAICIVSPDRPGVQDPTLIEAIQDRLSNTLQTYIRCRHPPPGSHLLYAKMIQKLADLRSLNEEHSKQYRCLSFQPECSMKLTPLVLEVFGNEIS

MCF7 = assay: Percent inhibition against MCF-7 cell line (50% dose response), relative to 1-alpha,25 (OH)2D3 (100% activity) determined in vitro; assay type: functional, Homo sapiens; set-up: scale not given: the % may be the effect or the level left
HL-60 = assay: Percent inhibition against HL-60 cell line (50% dose response), relative to 1-alpha,25 (OH)2D3 (100% activity) determined in vitro; assay type: functional, Homo sapiens; set-up: scale not given: the % may be the effect or the level left
Mus musculus = assay: Calcemic effect in vivo in vitamin D-replete normal NMRI mice by daily intraperitoneal injections of compound and 1-alpha,25 (OH)2D3 for 7 consecutive days; assay type: functional
Keratinocyte = assay: Percent inhibition against Keratinocytes cell line (50% dose response), relative to 1-alpha,25 (OH)2D3 (100% activity) determined in vitro; assay type: functional, Homo sapiens; set-up: scale not given: the % may be the effect or the level left
[2] = biological target: T1, Vitamin D3 receptor (Sus scrofa); assay: as §1

SMILES | Relative affinity [1] | Activity (MCF7) | Activity (HL-60) | Activity (Mus musculus) | Activity (Keratinocyte) | Relative affinity [2]
C=C1/C(=C\C=C2/CCC[C@]3(C)[C@@H]([C@H](C)CCCC(C)(C)O)CC[C@@H]23)C[C@@H](O)C[C@@H]1O [CALCITRIOL] | 100 | 100% | 100% | 100% | 100% | 
C=C1C(=CC=C[C@@H]2CC[C@](C)([C@@H](C)CC(C)CCCC(C)(C)O)C2(C)C)C[C@@H](O)C[C@@H]1O (stereo not given in full) |  | 2000% | 800% | 8% | 1000% | 85
CCC(O)(C#CCC(C)C[C@@H](C)[C@@]1(C)CC[C@@H](/C=C/C=C2C[C@@H](O)C[C@H](O)C2)C1(C)C)CC (stereo not given in full) |  | 85% | 50% | 0.25% | 85% | 50
C=C1C(=CC=C[C@@H]2CC[C@](C)([C@@H](C)CC(C)CC#CC(C)(C)O)C2(C)C)C[C@@H](O)C[C@@H]1O (stereo not given in full) | 75 | 1250% | 800% | 3% | 3250% | 
CC(CC#CC(O)(C(F)(F)F)C(F)(F)F)C[C@@H](C)[C@@]1(C)CC[C@@H](/C=C/C=C2C[C@@H](O)C[C@H](O)C2)C1(C)C (stereo not given in full) |  | 1500% | 300% | 3% | 3000% | 50
CC(CC#CC(O)(C(F)(F)F)C(F)(F)F)C[C@H](C)[C@@]1(C)CC[C@@H](/C=C/C=C2C[C@@H](O)C[C@H](O)C2)C1(C)C (stereo not given in full) | 50 | 6000% | 400% | 25% | 15000% | 
C=C1C(=CC=C[C@@H]2CC[C@](C)([C@H](C)CC(C)CCCC(O)(C(F)(F)F)C(F)(F)F)C2(C)C)C[C@@H](O)C[C@@H]1O (stereo not given in full) |  | 2500% | 150% | 10% | 2400% | 30
CC(CCCC(O)(C(F)(F)F)C(F)(F)F)C[C@H](C)[C@@]1(C)CC[C@@H](/C=C/C=C2C[C@@H](O)C[C@H](O)C2)C1(C)C (stereo not given in full) | 40 | 20000% | 400% | 100% | 16000% | 
CC(CCCC(O)(C(F)(F)F)C(F)(F)F)C[C@@H](C)[C@@]1(C)CC[C@@H](/C=C/C=C2C[C@@H](O)C[C@H](O)C2)C1(C)C (stereo not given in full) |  | 600% | 100% | 50% | 1500% | 9
CC(CC#CC(C)(C)O)C[C@@H](C)[C@@]1(C)CC[C@@H](/C=C/C=C2C[C@@H](O)C[C@H](O)C2)C1(C)C (stereo not given in full) |  | 70% | 85% | 0.12% | 200% | 7
C=C1C(=CC=C[C@@H]2CC[C@](C)([C@H](C)CC(C)CC#CC(O)(CC)CC)C2(C)C)C[C@@H](O)C[C@@H]1O (stereo not given in full) |  | 150% | 75% | 2% | 80% | 80
C=C1C(=CC=C[C@@H]2CC[C@](C)([C@H](C)CC(C)CC#CC(C)(C)O)C2(C)C)C[C@@H](O)C[C@@H]1O (stereo not given in full) |  | 600% | 80% | 3% | 500% | 60
CC(CC#CC(C)(C)O)C[C@H](C)[C@@]1(C)CC[C@@H](/C=C/C=C2C[C@@H](O)C[C@H](O)C2)C1(C)C (stereo not given in full) | 40 | 1300% | 350% | 4% | 2000% | 
CC(CCCC(C)(C)O)C[C@@H](C)[C@@]1(C)CC[C@@H](/C=C/C=C2C[C@@H](O)C[C@H](O)C2)C1(C)C (stereo not given in full) |  | 8% | 10% | 0.12% | 80% | 3
C=C1C(=CC=C[C@@H]2CC[C@](C)([C@H](C)CC(C)CCCC(O)(CC)CC)C2(C)C)C[C@@H](O)C[C@@H]1O (stereo not given in full) |  | 300% | 150% | 2% | 400% | 50
C=C1C(=CC=C[C@@H]2CC[C@](C)([C@@H](C)CC(C)CC#CC(O)(CC)CC)C2(C)C)C[C@@H](O)C[C@@H]1O (stereo not given in full) | 80 | 750% | 600% | 25% | 800% | 
CCC(O)(CC)CCCC(C)C[C@@H](C)[C@@]1(C)CC[C@@H](/C=C/C=C2C[C@@H](O)C[C@H](O)C2)C1(C)C (stereo not given in full) |  | 150% | 80% | 0.5% | 300% | 10
CC(CCCC(C)(C)O)C[C@H](C)[C@@]1(C)CC[C@@H](/C=C/C=C2C[C@@H](O)C[C@H](O)C2)C1(C)C (stereo not given in full) | 40 | 400% | 600% | 0.5% | 600% | 
CCC(O)(CC)CCCC(C)C[C@H](C)[C@@]1(C)CC[C@@H](/C=C/C=C2C[C@@H](O)C[C@H](O)C2)C1(C)C (stereo not given in full) | 60 | 7500% | 500% | 20% | 7000% | 
C=C1C(=CC=C[C@@H]2CC[C@](C)([C@H](C)CC(C)CC#CC(O)(C(F)(F)F)C(F)(F)F)C2(C)C)C[C@@H](O)C[C@@H]1O (stereo not given in full) |  | 4500% | 250% | 6% | 3600% | 60
CCC(O)(C#CCC(C)C[C@H](C)[C@@]1(C)CC[C@@H](/C=C/C=C2C[C@@H](O)C[C@H](O)C2)C1(C)C)CC (stereo not given in full) | 60 | 700% | 400% | 2% | 300% | 
C=C1C(=CC=C[C@@H]2CC[C@](C)([C@@H](C)CC(C)CC#CC(O)(C(F)(F)F)C(F)(F)F)C2(C)C)C[C@@H](O)C[C@@H]1O (stereo not given in full) | 75 | 8000% | 1250% | 25% | 15000% | 
C=C1C(=CC=C[C@@H]2CC[C@](C)([C@H](C)CC(C)CCCC(C)(C)O)C2(C)C)C[C@@H](O)C[C@@H]1O (stereo not given in full) |  | 60% | 50% | 0.25% | 100% | 6
C=C1C(=CC=C[C@@H]2CC[C@](C)([C@@H](C)CC(C)CCCC(O)(CC)CC)C2(C)C)C[C@@H](O)C[C@@H]1O (stereo not given in full) | 85 | 15000% | 1250% | 100% | 7000% | 
C=C1C(=CC=C[C@@H]2CC[C@](C)([C@@H](C)CC(C)CCCC(O)(C(F)(F)F)C(F)(F)F)C2(C)C)C[C@@H](O)C[C@@H]1O (stereo not given in full) | 60 | 30000% | 400% | >100% | 20000% | 
